In one test the target is BACE1 (Homo sapiens, UniProt P56817). Nature of the test: P5-P5′ BACE1 inhibition assay. The test is classed as biochemical. As to conditions: cell-free; read-out: BACE1 IC50 (P5-P5′ assay; BACE1-APP).
The target of a further test is eAPP (Homo sapiens, UniProt P05067). Kind of test: APP binding by surface plasmon resonance (SPR).
The target in the next test is T1, BACE1 cleavage of PSGL1 (Homo sapiens, UniProt P56817).
T1 construct: with or without full-length wild-type BACE1; expressed in transfected cells; host or cells: HEK293
T1 sequence (P56817 46-501): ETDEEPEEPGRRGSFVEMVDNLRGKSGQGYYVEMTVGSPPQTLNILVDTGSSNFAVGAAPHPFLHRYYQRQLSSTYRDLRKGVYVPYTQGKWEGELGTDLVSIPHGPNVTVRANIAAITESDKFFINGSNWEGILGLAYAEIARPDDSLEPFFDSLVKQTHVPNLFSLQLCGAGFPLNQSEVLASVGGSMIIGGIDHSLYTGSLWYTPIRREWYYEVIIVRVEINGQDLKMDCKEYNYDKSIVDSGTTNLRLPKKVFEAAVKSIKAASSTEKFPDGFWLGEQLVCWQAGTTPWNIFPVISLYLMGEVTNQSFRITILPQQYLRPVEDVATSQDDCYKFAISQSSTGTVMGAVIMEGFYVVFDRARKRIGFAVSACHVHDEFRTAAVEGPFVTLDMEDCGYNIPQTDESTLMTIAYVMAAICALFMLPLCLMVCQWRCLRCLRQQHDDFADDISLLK
Nature of the test: PSGL1 assay (SEAP-PSGL1). The format is cell-based. The note with it: SEAP-PSGL1, HEK293.

Test [1] concerns CHO-7W cells expressing wildtype human APP. Nature of the test: sAPPβ and Aβ1-42 production in CHO-7W cells (AlphaLISA). The test is classed as cell-based, Chinese hamster. The note with it: 1 μM, in words. As to the method: Culture Media was collected and frozen. Media was assayed using an AlphaLISA for Aβ1-42 (Perkin Elmer catalog # AL276C), sAPPα (R&D Systems catalog # AF1168 conjugated with Perkin Elmer acceptor beads catalog # 6772001 + 2B3 antibody from IBL catalog # 11088 biotinylated), and sAPPβ (Perkin Elmer AL276-acceptor + IBL catalog # 18957 biotinylated). For the assay, 2 μL of diluted or undiluted sample was added to a 384 well plate, followed by 2 μL of the respective antibody mixture. This was incubated for 1 h. Afterwards, 2 μL of donor beads was added to each well, followed by a 30-min incubation in the dark, after which the signal was read.

A further test concerns the target T2, cathepsin D (CatD) (Homo sapiens, UniProt P07339).
T2 construct: purchased R&D Systems 1014-AS
Nature of the test: Cathepsin D activity assay. The note with it: in words. The format is biochemical. On the procedure: The effects of candidate ASBIs on cathepsin D (CatD) activity was assessed using the R&D Systems CatD activity assay kit (Catalog #: 1014-AS and ES001) according to the manufacturer's instructions. For the assay, 4 μL of assay buffer was added to each well, followed by 2 μL of CatD diluted in assay buffer to 5 ng/uL. Then, 2 μL of inhibitor, at concentrations along an 11 pt. two-fold dilution series starting at 50 μM, were added to appropriated wells and incubated for 30 min at room temperature. For all dilutions of inhibitor, drug stock solutions of 10 mM in DMSO were diluted to 50 μM in water; subsequent dilutions were in 2.5 % DMSO. Afterwards, 2 μL of fluorogenic CatD substrate, diluted to 50 μM in assay buffer, were added to each well, after which the signal generated was read every 30 min at 25 °C for 1hr.

The target of a further test is T3, BACE1 cleavage of NRG1 (Homo sapiens, UniProt P56817).
T3 construct: with or without full-length wild-type BACE1; expressed in transfected cells; host or cells: HEK293
T3 sequence (P56817 46-501): as above
Nature of the test: SEAP-NRG assay. As to conditions: SEAP-NRG1, HEK293. The format is cell-based.

The target of test [2] is BACE1 cleavage of MBP-APPC125 substrate (Homo sapiens, UniProt P56817). Nature of the test: MBP-APPC125 BACE1 cleavage assay. The format is biochemical. The note with it: in words. As to the method:
(-)/peak 2 enantiomers. […] Specifically, 2 μL of the Acc-Mix was loaded into each well and incubated for 1-hour at RT, then 2 μL of Donor-Mix was added and incubated for 30 min at room RT protected from light. The signal was quantified using an Envision Plate reader (Fig S6). Testing of FA[…](-) in HEK-APP-GFP cells HEK293T cells stably transfected with human APP (P05067-1, […]) tagged with Green Fluorescent Protein (GFP) on the N-terminal (HEK-APP; AcroBiosystems cat# CHEK-ATP081) were cultured according to manufacturer recommendations. […] Cells were then washed with PBS and imaged at 37 °C and 5% CO2 using a BioTek Lionheart FX microscope using brightfield and green fluorescence filters with a 20X objective. Images were then processed with Gen5 software to obtain the total intensity of the GFP channel (469/525) and the mean GFP channel intensity.(Fig S7, S8) Supplementary Figures Figure S1. BACE inhibition dose-response and pharmacokinetics for FAH1 and FAH3. (a) IC50 curves for FAH1, 3, 17 and 65 in the P5-P5' assay described in main manuscript. […] μM, respectively. […] 150 FAH-65 BA C E-IV 100 50 0 50 10 0. 1 [ ] µM Figure S2. FAH65 in the BACE2 assay. […] 6 (1 picture or pasted object on this page, not shown here)

The results in this text go back to publication PMC12491701, “Discovery of an APP-selective BACE1 inhibitor for Alzheimer's disease” (Neurotherapeutics, 2025).

Values joined by “and” are separate entries in the source; they are usually repeats but may differ in a detail not shown here. Equal entries are not always repeated. Where only a bound is given, the exact number is not on record here.

Chain of BACE1 (P56817 46-501): as above
Chain of BACE1 cleavage of MBP-APPC125 substrate (P56817 46-501): as above
T2 sequence (P07339 65-412): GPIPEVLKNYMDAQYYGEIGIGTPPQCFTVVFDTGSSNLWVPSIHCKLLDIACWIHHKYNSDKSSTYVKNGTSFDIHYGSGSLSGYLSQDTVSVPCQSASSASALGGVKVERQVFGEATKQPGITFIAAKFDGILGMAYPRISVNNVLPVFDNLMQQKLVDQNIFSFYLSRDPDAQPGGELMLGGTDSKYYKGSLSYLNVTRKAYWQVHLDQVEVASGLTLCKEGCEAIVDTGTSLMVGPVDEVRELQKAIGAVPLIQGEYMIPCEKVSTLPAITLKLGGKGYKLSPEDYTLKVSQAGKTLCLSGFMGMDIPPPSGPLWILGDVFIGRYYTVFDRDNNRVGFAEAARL
Chain of eAPP (P05067 18-701): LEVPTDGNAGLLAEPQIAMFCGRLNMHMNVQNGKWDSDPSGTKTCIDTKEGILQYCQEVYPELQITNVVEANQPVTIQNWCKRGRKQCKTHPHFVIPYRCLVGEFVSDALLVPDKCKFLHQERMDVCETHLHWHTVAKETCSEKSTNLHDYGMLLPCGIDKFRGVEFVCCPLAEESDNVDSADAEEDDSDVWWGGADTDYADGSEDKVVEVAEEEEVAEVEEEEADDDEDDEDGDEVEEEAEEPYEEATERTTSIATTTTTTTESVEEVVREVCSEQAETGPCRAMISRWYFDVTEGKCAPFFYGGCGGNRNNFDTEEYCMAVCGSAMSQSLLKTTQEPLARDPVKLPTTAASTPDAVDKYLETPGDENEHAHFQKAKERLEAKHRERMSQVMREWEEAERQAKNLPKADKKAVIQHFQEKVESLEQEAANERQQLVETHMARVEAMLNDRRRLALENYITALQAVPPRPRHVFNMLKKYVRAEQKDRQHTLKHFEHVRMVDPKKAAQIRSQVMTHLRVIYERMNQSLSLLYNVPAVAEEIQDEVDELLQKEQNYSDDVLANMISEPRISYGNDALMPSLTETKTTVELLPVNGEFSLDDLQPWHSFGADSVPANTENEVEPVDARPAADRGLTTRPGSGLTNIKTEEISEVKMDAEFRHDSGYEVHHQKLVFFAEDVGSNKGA
Method for BACE1 cleavage of NRG1: A cDNA construct encoding a human placental secreted alkaline phosphatase (SEAP)-NRG1 (pAPtag5-NRG1-β1) fusion protein was transfected in human embryonic kidney (HEK293) cells in a 6-well format with or without full-length wild-type BACE1 using Lipofectamine 2000 (Invitrogen) as described previously [27]. After transfection, the medium was replaced with DMEM containing the test compound at 10, 5, 1, 0.1, and 0.01 ​μM as well as 10 ​% heat-inactivated fetal bovine serum (FBS), then incubated for 24 ​h. SEAP activity was measured in the conditioned medium.
Method for BACE1 cleavage of PSGL1: A cDNA construct encoding a human placental secreted alkaline phosphatase (SEAP)-PSGL1 (pAPtag5-PSGL1-β1) fusion protein was transfected in human embryonic kidney (HEK293) cells in a 6-well format with or without full-length wild-type BACE1 using Lipofectamine 2000 (Invitrogen). After 6–8 ​h transfection, the medium was replaced with DMEM containing the test compound at 10, 5, 1, 0.1 and 0.01 ​μM and 10 ​% heat-inactivated fetal bovine serum (FBS), and incubated for 24 ​h. SEAP activity was measured in the conditioned medium.
Method for eAPP: The interaction of FAH3, 17 and 65 were evaluated using the SPR protocol described previously in Descamps et al., [26].
For these pilot experiments eAPP as described in Descamps et al (26) is crosslinked to a the CM5 Biacore chip. FAH3 at various concentration was used in the flow through the chip, and the plasmon resonance signal was determined using a Biacore T100. The raw data uncorrected for contribution of running buffer is fit to equilibrium binding data and corrected for the contribution of the running buffer to
For FAH17 and FAH65-APP binding was determined using SPR to determine competition with BSA that non-specifically binds to the eAPP-Biacore chip.

For `Cc1cc(C2(c3cccc(F)c3)N=C(N)N(C)C2=O)ccc1OC(F)F` (stereo not drawn) [FAH17], the IC50 at BACE1 is ~0.3 µM and 0.3 µM. Further, the Kd at eAPP was ~3.3 µM. The EC50 on BACE1 cleavage of PSGL1 and at BACE1 cleavage of NRG1 was > 10 µM each time. The sAPPβ production entry in test [1] (24-h treatment) was “decrease”. In addition, the Aβ1-42 production result in test [1] is listed as “decrease”. Also, the “inhibition of cathepsin D activity” value on cathepsin D (CatD) was “Neither analog significantly inhibited”.
`O=C1NC(=O)C(c2ccccc2)(c2ccccc2)N1` [phenytoin, reference compound]: in test [2], the “inhibition of BACE1 cleavage of MBP-APPC125” value is listed as “weak inhibitor”. Further, the IC50 on BACE1 is > 200 µM.
